According to patent US20120202787A1, “Novel Heteroaryl Imidazoles And Heteroaryl Triazoles As Gamma-Secretase Modulators” (Pfizer Inc., priority 2009, published 2012):

These molecules were tested on γ-secretase (production of amyloid beta protein Aβ (1-42)) (assay: Cell-based γ-secretase assay with ELISA readout (Aβ (1-42) production)). Conditions: Geometric mean of at least 2 determinations; Table 3; read-out: Aβ 42 IC50 (μM)*.
Design: species or system human WT-APP overexpressing CHO cells
Experimental: Cell-Based γ-Secretase Assay with ELISA Readout
The ability of compounds to modulate production of amyloid beta protein Aβ (1-42) was determined using human WT-APP overexpressing CHO cells. Cells were plated at 22,000 cells/100 μL well in 96 well tissue culture treated, clear plates (Falcon) in DMEM/F12 based medium and incubated for 24 hours at 37° C. Compounds for testing were diluted in 100% DMSO to achieve an eleven points, half log, dose response for IC50 determinations. Compounds were added in fresh medium to achieve 1% final DMSO. Appropriate vehicle and inhibitor controls were added to obtain maximum and minimum inhibition values for the assay before the plates were incubated for about 24 hours at 37° C.
Coating of ELISA assay plates was initiated by addition of 50 μL/well of an in-house Aβ (1-42) specific antibody at (4 μg/mL) in 0.1 M NaHCO3 (pH 9.0) into black 384-well Maxisorp® plates (Nunc) and incubated overnight at 4° C. The capture antibody was then aspirated from the ELISA assay plates and 100 μL/well of Blocking Buffer (Dulbecco's PBS, 1.5% BSA (Sigma A7030)) added. Ambient temperature incubation was allowed to proceed for a minimum of two hours before washing 2×100 μL with Wash Buffer (Dulbecco's PBS, 0.05% Tween 20). Assay Buffer (Dulbecco's PBS, 1.0% BSA (Sigma A7030), 0.05% Tween 20) 20 μL/well was then added.
After incubation overnight at 37° C., 5% CO2, 40 μL (in duplicate) of experimental conditioned media were transferred into wells of the blocked ELISA plates containing the capture antibody, followed by overnight incubation at 4° C. Cell toxicity was measured in the corresponding cells after removal of the media for the Aβ (1-42) assay by a colorimetric cell proliferation assay (CellTiter 96® AQueous One Solution Cell Proliferation Assay, Promega) according to the manufacturer's instructions.
After overnight incubation of the ELISA assay plates at 4° C., unbound Aβ peptides were removed thorough (4×100 μL) washes with Wash Buffer. Europium (Eu) labeled (custom labeled, Perkin Elmer) Aβ (1-16) 6e10 Monoclonal Antibody (Covance #SIG-39320 was added, (50 μL /well Eu-6e10 @ 1:5000, 20 uM EDTA) in Assay Buffer. Incubation at ambient temperature for a minimum of 2 hours was followed by (4×100 μL) washes with Wash Buffer, before 50 μL/well of Delfia Enhancement Solution (Perkin Elmer) was added. Following a one hour ambient temperature incubation, the plates were read on an EnVision plate reader (Perkin Elmer) using standard DELFIA TRF settings. Data analysis including inhibitory IC50 determination was performed using nonlinear regression fit analysis (in-house software) and the appropriate plate mean values for the maximum and minimum inhibition controls.

Row | IC50 | SMILES
1 | 0.096 µM | COc1nc(C(=O)N2CC(COc3cccc4ccccc34)C2)ccc1-n1cnc(C)c1 [Example 48, 2-methoxy-3-(4-methyl-1H-imidazol-1-yl)-6-({3-[(1-naphthyloxy)methyl]azetidin-1-yl}carbonyl) pyridine]
2 | 0.364 µM | COc1nc(C(=O)NC2COc3c(C)cc(Cl)cc32)ccc1-n1cnc(C)c1 (centres unmarked) [Example 52, N-(5-chloro-7-methyl-2,3-dihydro-1-benzofuran-3-yl)-6-methoxy-5-(4-methyl-1H-imidazol-1-yl)pyridine-2-carboxamide]
3 | 0.2 µM | COc1nc(C(=O)NC2COc3cc(C)c(Cl)cc32)ccc1-n1cnc(C)c1 (centres unmarked) [Example 50, N-[5-chloro-6-methyl-2,3-dihydro-1-benzofuran-3-yl]-6-methoxy-5-(4-methyl-1H-imidazol-1-yl)pyridine-2-carboxamide]

Row | SMILES | IC50
4 | COc1nc(C(=O)NC2COc3ccc(C(F)(F)F)cc32)ccc1-n1cnc(C)c1 (centres unmarked) [Example 56, 6-methoxy-5-(4-methy-1H-imidazol-1-yl)-N-[5-(trifluoromethyl)-2,3-dihydro-1-benzofuran-3-yl]pyridine-2-carboxamide] | 0.478 µM

Same assay, conditions: human WT-APP overexpressing CHO cells; Aβ (1-42) ELISA; about 24 hours at 37° C.; free base or salt; read-out: Aβ 42B IC50 (μM) (Geometric Mean of 2-8 Determinations)

Row | SMILES | IC50
5 | COc1nc(C(=O)NCC2(c3ccccc3)CCCC2)cnc1-n1cnc(C)c1 [Example 2, 6-Methoxy-5-(4-methyl-1H-imidazol-1-yl)-N-[(1-phenylcyclopentyl)methyl]pyrazine-2-carboxamide] | 2.29 µM
6 | COc1nc(C(=O)NCCc2nc3ccc(Cl)cc3o2)cnc1-n1cnc(C)c1 [Example 12, N-[2-(6-chloro-1,3-benzoxazol-2-yl)ethyl]-6-methoxy-5-(4-methyl-1H-imidazol-1-yl)pyrazine-2-carboxamide] | 1.43 µM
7 | COc1cc(C(=O)NCCc2c(C)[nH]c3c(Cl)cc(Cl)cc23)ncc1-n1cnc(C)c1 [Example 21, N-[2-(5,7-dichloro-2-methyl-1H-indol-3-yl)ethyl]-4-methoxy-5-(4-methyl-1H-imidazol-1-yl)pyridine-2-carboxamide] | 6.25 µM
8 | COc1nc(C(=O)NCC2CCCC2)cnc1-n1cnc(C)c1 [Example 19, N-(cyclopentylmethyl)-6-methoxy-5-(4-methyl-1H-imidazol-1-yl)pyrazine-2-carboxamide] | 5.77 µM
9 | COc1nc(C(=O)NCc2cccc(C(F)(F)F)c2)cnc1-n1cnc(C)c1 [Example 4, 6-Methoxy-5-(4-methyl-1H-imidazol-1-yl)-N-[3-(trifluoromethyl)benzyl]pyrazine-2-carboxamide] | 1.75 µM
10 | COc1nc(C(=O)NCc2cnc(-c3ccccc3)s2)cnc1-n1cnc(C)c1 [Example 16, 6-methoxy-5-(4-methyl-1H-imidazol-1-yl)-N-[(2-phenyl-1,3-thiazol-5-yl)methyl]pyrazine-2-carboxamide] | 1.94 µM
11 | COc1nc(C(=O)NCC2(c3ccc(Cl)cc3)CCCC2)cnc1-n1cnc(C)c1 [Example 14, N-{[1-(4-chlorophenyl)cyclopentyl]methyl}-6-methoxy-5-(4-methyl-1H-imidazol-1-yl)pyrazine-2-carboxamide] | 1.45 µM
12 | Cc1cn(-c2ccc(C(=O)NCC3(c4cccc(C(F)(F)F)c4)CCOCC3)cn2)cn1 [Example 1, 6-(4-Methyl-1H-imidazol-1-yl)-N-({4-[3-(trifluoromethyl)phenyl]tetrahydro-2H-pyran-4-yl}methyl)nicotinamide] | 13.6 µM
13 | COc1nc(C(=O)NCC2(c3ccc(Cl)cc3)CC2)ccc1-n1cnc(C)c1 [Example 3, N-{[1-(4-Chlorophenyl)cyclopropyl]methyl}-6-methoxy-5-(4-methyl-1H-imidazol-1-yl)pyridine-2-carboxamide] | 0.186 µM
14 | COc1nc(C(=O)NCC2(c3ccc(F)cc3)CC2)ccc1-n1cnc(C)c1 [Example 5, N-{[1-(4-Fluorophenyl)cyclopropyl]methyl}-6-methoxy-5-(4-methyl-1H-imidazol-1-yl)pyridine-2-carboxamide] | 0.34 µM
15 | COc1nc(C(=O)NCC2(c3ccc(Cl)cc3)CC2)cnc1-n1cnc(C)c1 [Example 7, N-{[1-(4-Chlorophenyl)cyclopropyl]methyl}-6-methoxy-5-(4-methyl-1H-imidazol-1-yl)pyrazine-2-carboxamide] | 0.591 µM

Second part, the molecule after the results:

Row | IC50 | SMILES
16 | 0.394 µM | COc1nc(C(=O)NCc2ccc(Cl)cc2Cl)ccc1-n1cnc(C)c1 [Example 44, N-(2,4-dichlorobenzyl)-6-methoxy-5-(4-methyl-1H-imidazol-1-yl)pyridine-2-carboxamide]
17 | 1.01 µM | COc1nc(C(=O)NCc2ccc(OC(F)(F)F)cc2)ccc1-n1cnc(C)c1 [Example 31, 6-methoxy-5-(4-methyl-1H-imidazol-1-yl)-N-[4-(trifluoromethoxy)benzyl]-pyridine-2-carboxamide]
18 | 0.316 µM | COc1nc(C(=O)NCC2(c3ccccc3)CCCC2)ccc1-n1cnc(C)c1 [Example 25, 6-methoxy-5-(4-methyl-1H-imidazol-1-yl)-N-[(1-phenylcycloentyl)methyl] pyridine-2-carboxamide]
19 | 0.285 µM | COc1nc(C(=O)N2CC[C@@H](Oc3ccccc3C(F)(F)F)C2)ccc1-n1cnc(C)c1 [Example 37, 2-methoxy-3-(4-methyl-1H-imidazol-1-yl)-6-({(3R)-3-[2-(trifluoromethyl)-phenoxy]pyrrolidin-1-yl}carbonyl)pyridine]
20 | 0.667 µM | COc1nc(C(=O)NCc2cc(C)ccc2C)ccc1-n1cnc(C)c1 [Example 38, N-(2,5-dimethylbenzyl)-6-methoxy-5-(4-methyl-1H-imidazol-1-yl)pyridine-2-carboxamide]
21 | 0.438 µM | COc1nc(C(=O)NCC2(c3cccc(C)c3)CCC2)ccc1-n1cnc(C)c1 [Example 27, 6-methoxy-5-(4-methyl-1H-imidazol-1-yl)-N-{[1-(3-methylphenyl)cyclobutyl]-methyl}pyridine-2-carboxamide]
22 | 0.502 µM | COc1nc(C(=O)NCc2cccc(C(F)(F)F)c2)ccc1-n1cnc(C)c1 [Example 30, 6-methoxy-5-(4-methyl-1H-imidazol-1-yl)-N-[3-(trifluoromethyl)benzyl]-pyridine-2-carboxamide]
23 | 2.3 µM | COc1cc(C(=O)N2CC[C@@H](Oc3ccccc3C(F)(F)F)C2)cnc1-n1cnc(C)c1 [Example 46, 3-methoxy-2-(4-methyl-1H-imidazol-1-yl)-5-({(3R)-3-[2-(trifluoromethyl)-phenoxy]pyrrolidin-1-yl}carbonyl)pyridine]
24 | 17.2 µM | COc1cc(C(=O)NCC2(c3ccc(C(F)(F)F)cc3)CCOCC2)ncc1-n1cnc(C)c1 [Example 23, 4-methoxy-5-(4-methyl-1H-imidazol-1-yl)-N-({4-[4-(trifluoromethyl)phenyl]-tetrahydro-2H-pyran-4-yl}methyl)pyridine-2-carboxamide]
25 | 1.37 µM | Cc1cn(-c2ncc(C(=O)NCC3(c4ccc(Cl)cc4)CC3)cc2Cl)cn1 [Example 34, 5-chloro-N-{[1-(4-chlorophenyl)cyclopropyl]methyl}-6-(4-methyl-1H-imidazol-1-yl)nicotinamide]
26 | 3.44 µM | COc1cc(C(=O)N2CC[C@H](Oc3ccccc3C(F)(F)F)C2)cnc1-n1cnc(C)c1 [Example 47, 3-methoxy-2-(4-methyl-1H-imidazol-1-yl)-5-({(3S)-3-[2-(trifluoromethyl)-phenoxy]pyrrolidin-1-yl}carbonyl)pyridine]
27 | 0.314 µM | COc1nc(C(=O)NCC2(c3ccc(F)cc3)CCC2)ccc1-n1cnc(C)c1 [Example 28, N-{[1-(4-fluorophenyl)-cyclobutyl]methyl}-6-methoxy-5-(4-methyl-1H-imidazol-1-yl)pyridine-2-carboxamide]
28 | 2.23 µM | COc1cc(C(=O)NCC2(c3ccc(F)cc3)CC2)cnc1-n1cnc(C)c1 [Example 45, N-{[1-(4-fluorophenyl)-cyclopropyl]methyl}-5-methoxy-6-(4-methyl-1H-imidazol-1-yl)nicotinamide]
29 | 18 µM | COc1cc(C(=O)NCCc2c[nH]c3ccc(Cl)cc23)ncc1-n1cnc(C)c1 [Example 24, N-[2-(5-chloro-1H-indol-3-yl)ethyl]-4-methoxy-5-(4-methyl-1H-imidazol-1-yl)pyridine-2-carboxamide]
